Reference: US20140243401A1, “METHODS OF SCREENING COMPOUNDS THAT ARE CYTOTOXIC TO TUMOR CELLS AND METHODS OF TREATING TUMOR CELLS USING SUCH COMPOUND” (The Johns Hopkins University, priority 2010, published 2014)
Several values for one entry are separate records, joined by “and”; a condition that tells them apart may be missing. Equal entries are not always repeated.

Key:
[1] = test system: human cancer cell lines; test: XTT cytotoxicity assay, all human cancer cell lines tested; assay type: cell-based
Description: Cytotoxicity can be easily measured using XTT assays, which provide an indication of mitochondrial activity. The XTT assay is a non-radioactive alternative for the [^51Cr] release cytotoxicity assay. XTT is a tetrazolium salt that is reduced to a formazan dye only by metabolically active, viable cells. The reduction of XTT is measured spectrophotometrically as OD490-OD650. Thus, cells that are actively metabolizing will form reaction product when subjected to XTT measurement.
For this experiment, cells were cultured under standard culture conditions. MCF7 human breast cancer cells were cultured in DMEM containing 5 mM glucose medium with 10% fetal calf serum, 0.01 mg/ml insulin and 1% penicillin/streptomycin. To measure the cytotoxicity of specific compounds against cancer cells, 9×10^3 MCF7 cells were plated per well in 96-well plates. Following overnight culture, the compounds, dissolved in DMSO, were added to the wells in 1 μl volume at specified concentrations. Vehicle controls were run for each experiment. Each condition was run in triplicate. After 24 to 72 h of incubation, cells were incubated for 4 hours with the XTT reagent as per manufacturer's instructions (Cell Proliferation Kit II (XTT) Roche Diagnostics, New Jersey). Plates were read at OD490 on a PerkinElmer Victor 1420. Three wells containing the XTT reagent without cells served as the plate blank. […]

[2] = test system: OVCAR3 human ovarian cancer xenograft; test: tumor xenograft size, OVCAR3; assay type: in vivo, Athymic Nude mice; settings: Study 1129063207, OVCAR-3, oral b.i.d. 11 days, 50 mg/kg
Description: (§1) Xenograft studies were performed using various mmFAS inhibitors disclosed herein. Human cancer xenograft studies are known in the art. (See Pizer et al., Cancer Res. 56:1189-1193, 1996; Pizer et al., Cancer Res. 60: 213-218, 2000; Testa et al., Oncogene 24: 7455-7464, 2005).
(§2) In particular, C31 mouse efficacy studies were conducted in order to evaluate anti-neoplastic activity of C31 in vivo. Athymic Nude mice were implanted with HCT116 human colon, SKOV3 human ovarian or OVCAR3 human ovarian cancer cell lines and were treated when the grown tumor xenografts reached at least 150 to 200 mm^3.^1 ^1 Compounds were solubilized in TEP (80% polyethylene glycol (PEG) 400, 10% ethanol, 10% tween-80) in a volume of 50 μL.

[3] = test system: SKOV3 human ovarian cancer xenograft; test: tumor xenograft size, SKOV3; assay type: in vivo, Athymic Nude mice
Description: as §1, §2

[4] = test system: MCF7 cells; test: 14C-acetate incorporation into lipids in MCF7 cells; assay type: cell-based, human; settings: for IC50: Homo sapiens, MCF7 cells
Description: (§3) MCF7 human breast cancer cells (a cell line which overexpresses FAS) were cultured in DMEM containing 5 mM glucose medium with 10% fetal calf serum, 0.01 mg/ml insulin and 1% penicillin/streptomycin. For measurement of fatty acid synthesis cells were cultured in 24-well plates at 5×10^4 per well and incubated overnight. Fatty acid synthesis was assayed by a 2 h pulse of [U^14C]acetate, 1 μCi/well, followed by Folch extraction and scintillation counting. Test compounds were added with the addition of drugs as described. Controls were treated with DMSO alone.
as §3, with “cells” for “cells (a cell line which overexpresses FAS)”, “containing 1 mM or” for “containing”, “glucose in the” for “glucose”, “penicillin/streptomycin. The cells were grown in two oxygen conditions, normoxia (21% 02) or hypoxia (1% 02).” for “penicillin/streptomycin.”, “counting” for “counting. Test compounds were added”

[5] = test system: AMP-activated protein kinase (AMPK); test: AMPK activation (pAMPK Western blot) in MCF 7 cells at varying glucose and oxygen; assay type: cell-based, human; settings: MCF 7, 1 mM or 5 mM glucose, 1% or 21% oxygen, FIGS. 12, 13
Description: FIG. 12 A illustrates the effects of varying oxygen and glucose concentrations on AMPK activation over time in the presence of C31 in MCF 7 cells.
Determination of AMP-activated protein kinase status was carried out using the procedure described above. Cells were grown in 6-well plates at 5×10^4 per well and incubated overnight. Cells were cultured in 1 mM or 5 mM glucose at either 1% or 21% (ambient) oxygen levels. These conditions were employed for treatment with vehicle, C31, or Riv7d. Following drug treatment, the cells were harvested in Laemmli buffer and boiled for 5 minutes. Proteins were separated on a 4-15% SDS-PAGE gradient gel and transferred to a nitrocellulose membrane. Antibodies to pAMPK and AMPK were obtained from Cell Signaling.

For CCCCCCCCC1(C)SC(=O)C=C1OCC(=O)Nc1ccc(Cl)cc1 (stereo not drawn) [Compound C31], the CC50 ([1]; Homo sapiens, XTT, range over all cancer cell lines, read-out: LC50, human cancer cell lines) was 3.3 µg/mL to 16.7 µg/mL and 8.25 µM to 41.8 µM, the “potential therapeutic index in vitro” value ([1]; hepatocyte LC50 vs cancer cell line LC50) was 34 to 170 fold and the “Average Tumor Size Endpoint (% Change)” value [2] was −59 % Change. For the same compound, the “Average Tumor Size Endpoint (% Change)” value ([3]; Study 11007, SKOV-3, oral b.i.d. 11 days, 50 mg/kg) was −78 % Change, the “Average Tumor Size Endpoint (% Change)” value ([3]; Study 52307, SKOV-3, oral b.i.d. 15 days, 50 mg/kg) was −75 % Change and the “Average Tumor Size Endpoint (% Change)” value ([3]; Study 121306, SKOV-3, IP b.i.d. 12 days, 10 mg/kg) was “+179 % Change”. For the same compound, the “Average Tumor Size Endpoint (% Change)” value ([3]; Study 121306, SKOV-3, IP b.i.d. 12 days, 50 mg/kg) was −78 % Change, the “Average Tumor Size Endpoint (% Change)” value ([3]; Study 121306, SKOV-3, IP b.i.d. 12 days, 100 mg/kg) was −78 % Change and the “Average Tumor Size Endpoint (% Change)” value ([3]; Study 3150772607, SKOV-3, IP b.i.d. 10 days, 25 mg/kg) was −74 % Change. The “Average Tumor Size Endpoint (% Change)” value ([3]; Study 3150772607, SKOV-3, IP b.i.d. 10 days, 50 mg/kg) was −87 % Change, the “Average Tumor Size Endpoint (% Change)” value ([3]; Study 3150772607, SKOV-3, IP b.i.d. 10 days, 150 mg/kg) was −83 % Change and the IC50 ([4]; first experiment, FIG. 1) was 17 µg/mL. For the same compound, the IC50 ([4]; second experiment) was 13.6 µM, the “inhibition of FAS activity (14C-acetate incorporation)” value ([4]; MCF7, 1 mM or 5 mM glucose, 21% or 1% O2, FIG. 14) was “increasingly effective at inhibiting FAS activity” and the “AMPK phosphorylation (quantitative Western blots)” value [5] was “increased phosphorylation of AMPK”.
